Test results from ChEMBL document CHEMBL5584255, “Synthesis and antibacterial medicinal evaluation of carbothioamido hydrazonyl thiazolylquinolone with multitargeting antimicrobial potential to combat increasingly global resistance” (Eur J Med Chem, 2024).
Converted amounts (≈) assume the structure as drawn. The source made the active and inactive calls. No cut-off for these calls is given here.

Tests used:
Type in all cases: functional
Staphylococcus aureus [1] = assay: Antibacterial activity against methicillin-resistant Staphylococcus aureus N315 by microbroth dilution method
Escherichia coli [2] = assay: Antibacterial activity against drug-resistant Escherichia coli by microbroth dilution method
Staphylococcus aureus [3] = assay: Induction of resistance development in Staphylococcus aureus measured after 4 passages
Staphylococcus aureus [4] = assay: Antibacterial activity against Staphylococcus aureus ATCC 25923 by microbroth dilution method
Pseudomonas aeruginosa [5] = assay: Antibacterial activity against Pseudomonas aeruginosa by microbroth dilution method
Staphylococcus aureus [6] = assay: Antibacterial activity against drug-resistant Staphylococcus aureus by microbroth dilution method
Staphylococcus aureus [7] = assay: Antibacterial activity against Staphylococcus aureus ATCC 29213 by microbroth dilution method
Enterococcus faecalis = assay: Antibacterial activity against drug-resistant Enterococcus faecalis by microbroth dilution method
Acinetobacter baumannii = assay: Antibacterial activity against Acinetobacter baumannii by microbroth dilution method
Escherichia coli [8] = assay: Antibacterial activity against Escherichia coli ATCC 25922 by microbroth dilution method
Pseudomonas aeruginosa [9] = assay: Antibacterial activity against Pseudomonas aeruginosa ATCC 27853 by microbroth dilution method
Klebsiella pneumoniae = assay: Antibacterial activity against Klebsiella pneumoniae by microbroth dilution method
Candida tropicalis = assay: Antifungal activity against drug-resistant Candida tropicalis
Aspergillus fumigatus = assay: Antifungal activity against Aspergillus fumigatus
Candida parapsilosis = assay: Antifungal activity against Candida parapsilosis ATCC 22019; details: Lodderomyces parapsilosis
Candida albicans [10] = assay: Antifungal activity against Candida albicans ATCC 90023
Candida albicans [11] = assay: Antifungal activity against drug-resistant Candida albicans

Compound | MIC (Staphylococcus aureus [1]) [µM] | MIC (Escherichia coli [2]) [µM] | Activity (Staphylococcus aureus [3]) | MIC (Staphylococcus aureus [4]) [µM] | MIC (Pseudomonas aeruginosa [5]) [µM] | MIC (Staphylococcus aureus [6]) [µM] | MIC (Staphylococcus aureus [7]) [µM] | MIC (Enterococcus faecalis) [µM] | MIC (Acinetobacter baumannii) [µM] | MIC (Escherichia coli [8]) [µM] | MIC (Pseudomonas aeruginosa [9]) [µM] | MIC (Klebsiella pneumoniae) [µM] | MIC (Candida tropicalis) [µM] | MIC (Aspergillus fumigatus) [µM] | MIC (Candida parapsilosis) [µM] | MIC (Candida albicans [10]) [µM] | MIC (Candida albicans [11]) [µM]
CCn1cc(C(=O)O)c(=O)c2cc(F)c(N3CCNCC3)cc21 [NORFLOXACIN] | 25 (≈ 7.98 µg/mL) | 1600 (≈ 512 µg/mL) | inactive | 2 (≈ 0.639 µg/mL) | 1600 (≈ 512 µg/mL) | 25 (≈ 7.98 µg/mL) | 3 (≈ 0.958 µg/mL) | 802 (≈ 256 µg/mL) | 802 (≈ 256 µg/mL) | 25 (≈ 7.98 µg/mL) | 50 (≈ 16 µg/mL) | 802 (≈ 256 µg/mL) |  |  |  |  | 
C/C(Cn1cc(-c2csc(N)n2)c(=O)c2cc(F)cc(F)c21)=N\NC(N)=S | 314 (≈ 128 µg/mL) | 1260 (≈ 513 µg/mL) |  | 157 (≈ 64.1 µg/mL) | 627 (≈ 256 µg/mL) | 78 (≈ 31.9 µg/mL) | 78 (≈ 31.9 µg/mL) | 1260 (≈ 513 µg/mL) | 627 (≈ 256 µg/mL) | 1260 (≈ 513 µg/mL) | 627 (≈ 256 µg/mL) | 627 (≈ 256 µg/mL) | 627 (≈ 256 µg/mL) | 1260 (≈ 513 µg/mL) | 314 (≈ 128 µg/mL) | 627 (≈ 256 µg/mL) | 627 (≈ 256 µg/mL)
Nc1nc(-c2c[nH]c3ccc(F)cc3c2=O)cs1 | 490 (≈ 128 µg/mL) | 490 (≈ 128 µg/mL) |  | 490 (≈ 128 µg/mL) | 981 (≈ 256 µg/mL) | 490 (≈ 128 µg/mL) | 490 (≈ 128 µg/mL) | 490 (≈ 128 µg/mL) | 490 (≈ 128 µg/mL) | 490 (≈ 128 µg/mL) | 245 (≈ 64 µg/mL) | 490 (≈ 128 µg/mL) | 490 (≈ 128 µg/mL) | 245 (≈ 64 µg/mL) | 245 (≈ 64 µg/mL) | 61 (≈ 15.9 µg/mL) | 245 (≈ 64 µg/mL)
CC(=O)Cn1cc(-c2csc(C)n2)c(=O)c2cc(F)c(Cl)cc21 | 731 (≈ 256 µg/mL) | 731 (≈ 256 µg/mL) |  | 366 (≈ 128 µg/mL) | 731 (≈ 256 µg/mL) | 366 (≈ 128 µg/mL) | 366 (≈ 128 µg/mL) | 366 (≈ 128 µg/mL) | 731 (≈ 256 µg/mL) | 731 (≈ 256 µg/mL) | 366 (≈ 128 µg/mL) | 731 (≈ 256 µg/mL) | 731 (≈ 256 µg/mL) | 731 (≈ 256 µg/mL) | 366 (≈ 128 µg/mL) | 91 (≈ 31.9 µg/mL) | 366 (≈ 128 µg/mL)
CC(=O)Cn1cc(-c2csc(N)n2)c(=O)c2cc(F)ccc21 | 404 (≈ 128 µg/mL) | 404 (≈ 128 µg/mL) |  | 202 (≈ 64.1 µg/mL) | 404 (≈ 128 µg/mL) | 404 (≈ 128 µg/mL) | 404 (≈ 128 µg/mL) | 807 (≈ 256 µg/mL) | 807 (≈ 256 µg/mL) | 404 (≈ 128 µg/mL) | 404 (≈ 128 µg/mL) | 807 (≈ 256 µg/mL) | 404 (≈ 128 µg/mL) | 404 (≈ 128 µg/mL) | 1620 (≈ 513 µg/mL) | 51 (≈ 16.2 µg/mL) | 404 (≈ 128 µg/mL)
CC(=O)Cn1cc(-c2csc(C)n2)c(=O)c2cc(F)c(F)cc21 | 1530 (≈ 513 µg/mL) | 1530 (≈ 513 µg/mL) |  | 766 (≈ 256 µg/mL) | 1530 (≈ 513 µg/mL) | 766 (≈ 256 µg/mL) | 766 (≈ 256 µg/mL) | 1530 (≈ 513 µg/mL) | 1530 (≈ 513 µg/mL) | 1530 (≈ 513 µg/mL) | 1530 (≈ 513 µg/mL) | 766 (≈ 256 µg/mL) | 766 (≈ 256 µg/mL) | 766 (≈ 256 µg/mL) | 1530 (≈ 513 µg/mL) | 766 (≈ 256 µg/mL) | 1530 (≈ 513 µg/mL)
Cc1nc(-c2c[nH]c3cc(Cl)c(F)cc3c2=O)cs1 | 435 (≈ 128 µg/mL) | 1740 (≈ 513 µg/mL) |  | 435 (≈ 128 µg/mL) | 871 (≈ 257 µg/mL) | 871 (≈ 257 µg/mL) | 871 (≈ 257 µg/mL) | 871 (≈ 257 µg/mL) | 435 (≈ 128 µg/mL) | 435 (≈ 128 µg/mL) | 435 (≈ 128 µg/mL) | 871 (≈ 257 µg/mL) | 871 (≈ 257 µg/mL) | 435 (≈ 128 µg/mL) | 218 (≈ 64.3 µg/mL) | 109 (≈ 32.1 µg/mL) | 435 (≈ 128 µg/mL)
C/C(Cn1cc(-c2csc(N)n2)c(=O)c2cc(F)c(Cl)cc21)=N\O | 350 (≈ 128 µg/mL) | 350 (≈ 128 µg/mL) |  | 44 (≈ 16.1 µg/mL) | 87 (≈ 31.9 µg/mL) | 44 (≈ 16.1 µg/mL) | 44 (≈ 16.1 µg/mL) | 350 (≈ 128 µg/mL) | 350 (≈ 128 µg/mL) | 22 (≈ 8.07 µg/mL) | 44 (≈ 16.1 µg/mL) | 699 (≈ 256 µg/mL) | 699 (≈ 256 µg/mL) | 699 (≈ 256 µg/mL) | 44 (≈ 16.1 µg/mL) | 44 (≈ 16.1 µg/mL) | 87 (≈ 31.9 µg/mL)
CC(=O)Cn1cc(C(C)=O)c(=O)c2cc(F)c(Cl)cc21 | 868 (≈ 257 µg/mL) | 868 (≈ 257 µg/mL) |  | 868 (≈ 257 µg/mL) | 434 (≈ 128 µg/mL) | 1740 (≈ 513 µg/mL) | 1740 (≈ 513 µg/mL) | 868 (≈ 257 µg/mL) | 868 (≈ 257 µg/mL) | 868 (≈ 257 µg/mL) | 434 (≈ 128 µg/mL) | 868 (≈ 257 µg/mL) | 1740 (≈ 513 µg/mL) | 868 (≈ 257 µg/mL) | 217 (≈ 64.2 µg/mL) | 868 (≈ 257 µg/mL) | 1740 (≈ 513 µg/mL)
CCOC(=O)c1cn(C/C(C)=N/NC(N)=S)c2cc(Cl)c(F)cc2c1=O | 643 (≈ 256 µg/mL) | 1290 (≈ 513 µg/mL) |  | 643 (≈ 256 µg/mL) | 322 (≈ 128 µg/mL) | 643 (≈ 256 µg/mL) | 643 (≈ 256 µg/mL) | 643 (≈ 256 µg/mL) | 643 (≈ 256 µg/mL) | 1290 (≈ 513 µg/mL) | 322 (≈ 128 µg/mL) | 643 (≈ 256 µg/mL) | 643 (≈ 256 µg/mL) | 322 (≈ 128 µg/mL) | 161 (≈ 64.2 µg/mL) | 643 (≈ 256 µg/mL) | 1290 (≈ 513 µg/mL)
CCOC(=O)c1cn(C/C(C)=N/NC(N)=S)c2cc(F)c(F)cc2c1=O | 1340 (≈ 512 µg/mL) | 670 (≈ 256 µg/mL) |  | 670 (≈ 256 µg/mL) | 670 (≈ 256 µg/mL) | 670 (≈ 256 µg/mL) | 335 (≈ 128 µg/mL) | 335 (≈ 128 µg/mL) | 335 (≈ 128 µg/mL) | 670 (≈ 256 µg/mL) | 335 (≈ 128 µg/mL) | 670 (≈ 256 µg/mL) | 670 (≈ 256 µg/mL) | 670 (≈ 256 µg/mL) | 335 (≈ 128 µg/mL) | 670 (≈ 256 µg/mL) | 1340 (≈ 512 µg/mL)
C/C(Cn1cc(-c2csc(C)n2)c(=O)c2cc(F)c(F)cc21)=N\NC(N)=S | 1260 (≈ 513 µg/mL) | 1260 (≈ 513 µg/mL) |  | 1260 (≈ 513 µg/mL) | 314 (≈ 128 µg/mL) | 1260 (≈ 513 µg/mL) | 1260 (≈ 513 µg/mL) | 629 (≈ 256 µg/mL) | 314 (≈ 128 µg/mL) | 1260 (≈ 513 µg/mL) | 314 (≈ 128 µg/mL) | 1260 (≈ 513 µg/mL) | 1260 (≈ 513 µg/mL) | 1260 (≈ 513 µg/mL) | 1260 (≈ 513 µg/mL) | 1260 (≈ 513 µg/mL) | 1260 (≈ 513 µg/mL)
Nc1nc(-c2c[nH]c3c(F)cc(F)cc3c2=O)cs1 | 459 (≈ 128 µg/mL) | 459 (≈ 128 µg/mL) |  | 459 (≈ 128 µg/mL) | 459 (≈ 128 µg/mL) | 918 (≈ 256 µg/mL) | 918 (≈ 256 µg/mL) | 229 (≈ 64 µg/mL) | 459 (≈ 128 µg/mL) | 459 (≈ 128 µg/mL) | 229 (≈ 64 µg/mL) | 459 (≈ 128 µg/mL) | 229 (≈ 64 µg/mL) | 459 (≈ 128 µg/mL) | 459 (≈ 128 µg/mL) | 115 (≈ 32.1 µg/mL) | 115 (≈ 32.1 µg/mL)
Nc1nc(-c2c[nH]c3c(F)cccc3c2=O)cs1 | 981 (≈ 256 µg/mL) | 981 (≈ 256 µg/mL) |  | 981 (≈ 256 µg/mL) | 981 (≈ 256 µg/mL) | 981 (≈ 256 µg/mL) | 981 (≈ 256 µg/mL) | 490 (≈ 128 µg/mL) | 490 (≈ 128 µg/mL) | 981 (≈ 256 µg/mL) | 981 (≈ 256 µg/mL) | 981 (≈ 256 µg/mL) | 981 (≈ 256 µg/mL) | 490 (≈ 128 µg/mL) | 245 (≈ 64 µg/mL) | 490 (≈ 128 µg/mL) | 981 (≈ 256 µg/mL)
C/C(Cn1cc(-c2csc(C)n2)c(=O)c2cc(F)cc(F)c21)=N\NC(N)=S | 1260 (≈ 513 µg/mL) | 1260 (≈ 513 µg/mL) |  | 1260 (≈ 513 µg/mL) | 629 (≈ 256 µg/mL) | 1260 (≈ 513 µg/mL) | 629 (≈ 256 µg/mL) | 1260 (≈ 513 µg/mL) | 629 (≈ 256 µg/mL) | 1260 (≈ 513 µg/mL) | 629 (≈ 256 µg/mL) | 314 (≈ 128 µg/mL) | 1260 (≈ 513 µg/mL) | 629 (≈ 256 µg/mL) | 157 (≈ 64 µg/mL) | 1260 (≈ 513 µg/mL) | 1260 (≈ 513 µg/mL)
